From patent publication US11904049B2, “Pharmaceutical formulation” (priority 2017, dated 2024)
Where a name gives a salt, the structure may show the parent alone.

Legend:
[1] = cited from earlier work
in vivo = conditions: male, beagle, dog, plasma, intravenous, 0.143 mg/kg
Description: The three beagle dogs used in the experiment were male, non-naïve beagle dogs, weighing 12.7-13.9 kg, 37-39.5 months old, from CEDS (France) at the first session.
At each test session, serial blood samples were collected in all dogs at 12 time points: pre-dose, and then 0.083 (5 min), 0.167 (10 min), 0.33 (20 min), 0.5 (30 min), 1, 2, 3, 4, 5, 6 and 8 hours after the initial application, giving therefore a total of 180 blood samples. At each time-point, a blood sample of 2 mL was collected by puncture in a jugual vein in conscious animals using an identified vacuum tube containing K2-EDTA (Greiner Bio-One ref #454047) for plasma preparation. Immediately after collection, the blood sample was gently agitated and stored on ice until centrifugation (within 30 minutes of sampling). The blood samples were centrifuged at 4° C., at 1500 g, for 10 minutes. The entire resultant plasma was immediately transferred into an identified 1 mL polypropylene screw capped cryotube (1 aliquot of at least 800 μL of plasma) maintained on ice. The tubes were stored upright at approximately −20° C. until shipment to the test site, ABS Laboratories (BioPark, Broadwater Road, Welwyn Garden City, Herts AL7 3AX), for analysis by HPLC-MS (high performance liquid chromatography-mass spectrometry) using a standard separation protocol.
Individual concentration (C) versus time (T) curves were analysed for standard pharmacokinetic (PK) parameters using non-compartmental analysis using the SimBiology package of MatLab, Version 2015b.

## C=CCN1CC[C@]23c4c5ccc(O)c4O[C@H]2C(=O)CC[C@@]3(O)[C@H]1C5 [naloxone]
[1]
  strongest basic pKa: 10.07
[1]; naloxone as a base
  pKa: 7.84

## C=CCN1CC[C@]23c4c5ccc(O)c4O[C@H]2C(=O)CC[C@@]3(O)[C@H]1C5 [Intravenous, Naloxone HCl]
In vivo
  AUC(0-t): 20.8 ng·h/mL
  Cmax: 29.4 ng/mL
  Tmax: 6.7 min
  concentration at 5 min: 28.2 ng/mL
